{
  "source": "paper PMC11435065",
  "about": "“Inhibition of P-Glycoprotein Asymmetrically Alters the In Vivo Exposure Profile of SGC003F: A Novel Guanylate Cyclase Stimulator” (Pharmaceuticals, 2024)",
  "format_in_all_cases": "in vitro ADME",
  "key": {"[1]": {"experiment": "Bidirectional transport across Caco-2 monolayer cells", "settings": "human, Caco-2 cells, read-out: ER value (efflux ratio)", "experimental": "(§1) LLC-PK1-MDR1, LLC-PK1-MOCK, and Caco-2 cells were seeded in 24-well Transwell cell plates at optimized densities. The medium was changed every other day for the LLC-PK1 cells and every day for the Caco-2 cells. The LLC-PK1 cells were cultured continuously for 4–7 days, while the Caco-2 cells were cultured continuously for 28–35 days in preparation for transport experiments. Prior to the experiment, TEER (transepithelial electrical resistance) values were measured using a cell resistance meter. For electrical measurements, two electrodes were used, with one electrode placed in the upper compartment and the other in the lower compartment and the electrodes were separated by the cellular monolayer. The measurement procedure included measuring the blank resistance (Rblank) of the semipermeable membrane only (without cells) and measuring the resistance across the cell layer on the semipermeable membrane (Rtotal). TEER values were achieved by calculating as TEER = (Rtotal − Rblank) × Marea in the unit of Ω·cm^2. […]\n(§2) The apparent permeability rate value (Papp) of the monolayer cells was calculated according to Equation (5) Papp = (dQ/dt)/(A × C0)(5) where dQ/dt is the transport rate (µmol·s^−1); A is the insert surface area (0.33 cm^2); C0 is the initial concentration of the compound (µM).\n(§3) Efflux rate (ER) was calculated according to Equation (6):ER = Papp B-A/PappA-B(6)"}, "P-gp (human MDR1)": {"molecular_target": "T1, P-gp (human MDR1) (Homo sapiens, UniProt P08183)", "T1 construct": "expressed in transfected cells; host or cells: LLC-PK1 cells stably expressing human MDR1 (gift of Professor Qingcheng Mao, University of Washington)", "T1 sequence (P08183 whole entry)": "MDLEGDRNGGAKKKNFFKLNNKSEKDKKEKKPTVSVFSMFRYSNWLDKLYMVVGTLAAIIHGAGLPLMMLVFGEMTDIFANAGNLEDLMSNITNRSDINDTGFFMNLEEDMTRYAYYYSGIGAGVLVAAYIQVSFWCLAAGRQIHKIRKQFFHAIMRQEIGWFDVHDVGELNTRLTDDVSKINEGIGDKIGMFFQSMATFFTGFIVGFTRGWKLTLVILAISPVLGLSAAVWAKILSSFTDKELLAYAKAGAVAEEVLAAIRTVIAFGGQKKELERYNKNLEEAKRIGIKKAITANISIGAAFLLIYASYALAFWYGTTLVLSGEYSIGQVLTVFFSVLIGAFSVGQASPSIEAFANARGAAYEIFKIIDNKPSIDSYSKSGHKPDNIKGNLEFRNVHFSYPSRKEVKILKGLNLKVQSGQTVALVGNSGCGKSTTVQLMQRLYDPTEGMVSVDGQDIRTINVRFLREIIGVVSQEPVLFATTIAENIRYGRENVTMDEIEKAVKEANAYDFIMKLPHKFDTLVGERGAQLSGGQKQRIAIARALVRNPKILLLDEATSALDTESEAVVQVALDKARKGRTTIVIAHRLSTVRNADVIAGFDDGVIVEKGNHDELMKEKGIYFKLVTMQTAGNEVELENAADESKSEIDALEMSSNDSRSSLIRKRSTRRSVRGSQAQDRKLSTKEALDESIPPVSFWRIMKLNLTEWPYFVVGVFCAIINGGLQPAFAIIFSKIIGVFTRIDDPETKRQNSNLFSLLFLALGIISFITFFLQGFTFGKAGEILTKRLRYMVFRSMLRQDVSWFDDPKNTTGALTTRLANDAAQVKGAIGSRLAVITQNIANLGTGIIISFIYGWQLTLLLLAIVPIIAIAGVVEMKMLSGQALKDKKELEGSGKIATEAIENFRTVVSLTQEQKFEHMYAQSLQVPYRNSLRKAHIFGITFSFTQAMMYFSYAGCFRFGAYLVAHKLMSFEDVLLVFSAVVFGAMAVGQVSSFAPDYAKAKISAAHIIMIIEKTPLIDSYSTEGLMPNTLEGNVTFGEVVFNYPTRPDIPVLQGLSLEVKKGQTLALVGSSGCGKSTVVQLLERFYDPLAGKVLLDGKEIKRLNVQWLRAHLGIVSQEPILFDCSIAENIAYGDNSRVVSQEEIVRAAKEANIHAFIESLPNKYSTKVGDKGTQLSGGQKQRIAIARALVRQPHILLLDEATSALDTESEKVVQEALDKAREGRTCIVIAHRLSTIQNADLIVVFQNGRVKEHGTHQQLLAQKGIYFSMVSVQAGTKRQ", "experiment": "Bidirectional transport across LLC-PK1-MDR1 monolayer cells with or without tariquidar", "settings": "for efflux ratio at 2 h, 2 µM: human, read-out: ER value (efflux ratio)", "text": "Cell lines: LLC-PK1 cells with stable-expressing human MDR1 and mock-transfected with empty vector (LLC-PK1-MOCK) were gifted by the lab of Professor Qingcheng Mao (University of Washington, Seattle, WA, USA). The culture medium of the LLC-PK1-MOCK and LLC-PK1-MDR1 cells was 1640 medium containing 10% FBS and 100 U/mL PS. The Caco-2 cells were purchased from ADCC. The Caco-2 cell culture medium was DMEM high-glucose medium (containing 10% FBS, 1% non-essential amino acid solution, 100 U/mL PS). Both cell lines were cultured at 37 °C in a cell incubator containing 5% CO2.\nas §1, with “Ω·cm^2. The monolayer integrity was guaranteed by determining the TEER before and after the bidirectional transport experiments.” for “Ω·cm^2.”\nas §2, §3"}, "[2]": {"experiment": "In vitro metabolic stability in rat liver microsomes", "settings": "1 µM, up to 60 min, NADPH or UDPGA", "experimental": "In vitro incubation dependent on NADPH: SGC003F was added into rat and human liver microsomes diluted in PBS (100 mM, pH 7.3). NADPH was introduced into the system. The NADPH had been pre-equilibrated under the same conditions for 5 min to initiate the enzymatic reaction. The incubation mixture was meticulously prepared to achieve the following final concentrations: 1 µM for SGC003F, 0.5 mg/mL for the liver microsomal protein, and 1 mM for NADPH.\nIn vitro incubation dependent on UDPGA: rat and human liver microsomes diluted in PBS (100 mM, pH 7.3) were mixed with alamethicin and then placed on ice for 15 min before the addition of the working solution of SGC003F. After preincubation in a water bath at 37 °C for 5 min, UDPGA, which had been preincubated for 5 min was added to initiate the reaction. The final concentrations in the incubation system were as follows: 1 μM for SGC003F, 0.5 mg/mL for liver microsomal protein concentration, 5 mM for UDPGA, and 25 μg/mL for alamethicin.\nPositive probe substrate assays were utilized to ensure normal activity of the incubation system. […] Finally, 60 μL supernatant was taken and diluted with 60 μL of 50% acetonitrile before being analyzed by LC-MS/MS."}},
  "note": "Read-outs that look alike come from different tables or passages of the source.",
  "data": [
    {"smiles": "COC(=O)Nc1c(N)nc(-c2nn(Cc3sccc3F)c3ncc(F)cc23)nc1N", "note": "[SGC003F]", "values": [
      {"measurement": "efflux ratio at 2 h, 2 µM", "setting": "[1]", "result": 7.2},
      {"measurement": "P-gp substrate assessment", "setting": "P-gp (human MDR1); LLC-PK1-MDR1 vs LLC-PK1-MOCK, with/without tariquidar", "result": "substrate for P-gp"},
      {"measurement": "efflux ratio at 2 h, 2 µM", "setting": "P-gp (human MDR1); LLC-PK1, LLC-PK1-MDR1 cells, without tariquidar", "result": 6.71},
      {"measurement": "efflux ratio at 2 h, 2 µM", "setting": "P-gp (human MDR1); LLC-PK1, with tariquidar 5 µM, LLC-PK1-MDR1 cells, with tariquidar 5 µM", "result": 1.28},
      {"measurement": "Metabolic stability (percentage of drug remaining over time)", "setting": "[2]", "result": "no significant metabolic elimination"}
    ]}
  ]
}
